Series [1] in a line: Cytotoxicity in AML12HBV10 cells (MTT assay). The conditions noted are these: mouse, concentration that reduces viability by 50%, serial dilution 50 μM to 0.39 μM. The format is cell-based, murine. As to the method:
Determination of cytotoxicity of compounds of the disclosure in AML12HBV10 cells: To determine the cytotoxicity of the compounds, AML12HBV10 cells were seeded into 96-well plates at a density of 2×10^4 cells per well and cultured in DMEM/F12 media with 10% fetal bovine serum in the absence of tetracycline to allow pgRNA transcription and HBV DNA replication. One day after seeding, cells were left untreated or treated with a serial dilution of testing compounds, ranging from 50 μM to 0.39 μM, for 48 hours. The cell viability was measured by a MTT assay, following procedure provided by the manufacturer (Promega). The cytotoxicity of a compound was expressed as the concentration of compound that reduces the viability of the cells by 50% (CC50).

Another series concerns HBV capsids. As to the kind of experiment: Particle gel assay of nucleocapsids in AML12HBV10 cells. The format is cell-based, Hepatitis B virus (HBV). The conditions noted are these: 2 days, FIG. 1 panel B. As to the method: (§1) FIG. 1. Antiviral mechanism of the compounds of the present invention. AML12HBV10 cells were left untreated (NT) or treated with the indicated concentrations of the compounds of the disclosure Compound 6 and Compound 19, respectively, for 2 days. Bay-4109 (3 µM) or AT-61 (25 µM) served as positive controls. (A) Intracellular viral RNA was determined by Northern blot hybridization. Ribosomal RNA served as a loading control. (B) The total amounts of nucleocapsids were determined by a particle gel assay. (C) Encapsidated pgRNA were extracted and measured by Northern blot. (D) Nucleocapsid-associated HBV DNA was quantified by alkaline-treatment of nucleocapsids on the membrane following the particle gel assay and hybridized with a HBV-specific riboprobe. (E) HBV DNA replication intermediates were extracted and determined by Southern blot hybridizations.
(§2) Procedures of viral capsids and nucleocapsid-associated DNA analysis: AML12HB10 cells were lysed by addition of 300 μl buffer containing 10 mM Tris-HCl (pH7.6), 100 mM NaCl, 1 mM EDTA and 0.1% NP-40 to each well of 12-well plate. Cell debries were removed by centrifugation at 5000 g for 10 minutes. Ten microliters of the clarified cell lysates were fractionated by electrophoresis through nondenaturing 1% agarose gels and transferred to a nitrocellulose filter by blotting with TNE buffer (10 mM Tris-HCl, pH7.6; 150 mM NaCl and 1 mM EDTA). HBV capsids were detected by probing the membrane with an antibody against HBV core protein (DAKO). […] To detect capsid associated HBV DNA, the membrane were treated with buffer containing 0.5N NaOH and 1.5 M NaCl for 5 minutes and followed by neutralization with buffer containing 1 M TRIS-HCl and 1.5M NaCl for 5 minutes. The viral DNA was detected by hybridization with a α-^32P-UTP (800 Ci/mmol, Perkin Elmer) labeled minus strand specific full-length HBV riboprobe (Xu et al.).

For the next series, the system named is encapsidated pgRNA. As to the kind of experiment: Encapsidated pgRNA by Northern blot in AML12HBV10 cells. The format is cell-based, Hepatitis B virus (HBV). The conditions noted are these: 2 days, FIG. 1 panel C. As to the method: as §1
Determination of encapsidated pgRNA: AML12HBV10 cells were lysed by addition of 600 μl of lysis buffer (50 mM Tris-HCl [pH 7.5], 1 mM EDTA, 150 mM NaCl, 1% NP-40) into each well of 12-well plates. The nuclei were removed by centrifugation at 5,000 g for 10 minutes. One-half of the sample was mixed with 6 U of micrococcal nuclease (Pharmacia) and 15 μl of 100 mM CaCl2 and incubated for 15 minutes at 37° C. to digest free nucleic acids. The reaction was stopped with 6 μl of 0.5 M EDTA, and capsids were precipitated by adding 125 μl of 35% polyethylene glycol 8000 in 1.75 M NaCl to the reaction and incubating in ice for 30 minutes, followed by centrifugation at 6,000 g for 10 minutes at 4° C. Pellets were re-suspended in 50 μl of TNE buffer (10 mM Tris-HCl [pH 8], 100 mM NaCl, 1 mM EDTA). pgRNA was extracted by the addition of 1 ml of Trizol reagent. The encapsidated pgRNA were electrophoresed through a 2.2 M formaldehyde-1% agarose gel, transferred to a nylon membrane, and immobilized by UV cross-linking (Stratagene). Hybridization was performed with an alpha-^32P-UTP labeled riboprobe specific for plus strand of HBV genome.

Another series concerns HBV mRNA. The series is described as follows: Intracellular viral RNA by Northern blot in AML12HBV10 cells. It counts as cell-based, Hepatitis B virus (HBV). The conditions noted are these: 2 days, FIG. 1 panel A. As to the method:
as §1
Procedure for analysis of HBV mRNA: Upon the completion of treatment, total cellular RNA was extracted with TRIzol reagents (Invitrogen). Five micrograms of total RNA was resolved in 1.5% agarose gel containing 2.2 M formadelhyde and transferred onto Hybond-XL membrane in 20×SSC buffer. The amounts of HBV mRNA were determined by Northern blot hybridization with an alpha-^32P-UTP labeled riboprobe specific for plus strand of HBV genome.

Series [2] has as its system capsid-associated HBV DNA. The series is described as follows: Capsid-associated HBV DNA and DNA replication intermediates in AML12HBV10 cells. It counts as cell-based, Hepatitis B virus (HBV). Conditions: 2 days, FIG. 1 panels D and E. As to the method: as §1, §2
To analyze the HBV DNA replication intermediates, cells were lysed by adding into each well of the 12-well plates 0.5 ml of lysis buffer containing 10 mM Tris-HCl (pH 8.0), 1 mM EDTA, 1% NP40 and 2% sucrose and incubating at 37° C. for 10 minutes. Cell debris and nuclei were removed by centrifugation and the supernatant was mixed with 130 μl of 35% polyethylene glycol (PEG) 8000 containing 1.5 M NaCl. After 1 hour incubation in ice, viral nucleocapsids were pelleted by centrifugation at 6,000×g for 5 minutes at 4° C., followed by 1 hour digestion at 37° C. in 400 μl of digestion buffer containing 0.5 mg/ml pronase (Calbiochem), 0.5% SDS, 150 mM NaCl, 25 mM Tris-HCl (pH 8.0) and 10 mM EDTA. The digestion mixture was extracted twice with phenol and DNA was precipitated with ethanol, dissolved in TE buffer (10 mM Tris-HCl, pH 8.0; 0.1 mM EDTA). […]

As a reminder, the CC50 is the concentration that lowers cell viability or growth by half. Low values mean greater toxicity to the cells, high ones lower toxicity to the cells. `O=C(Nc1cccc(Cl)c1)c1scc2c1OCCO2` [Entry 6] showed a CC50 at 48 h in series [1] of more than 50 µM. In addition, the capsid formation entry with HBV capsids is “did not significantly affect”. Further, the “level of encapsidated pgRNA” value with encapsidated pgRNA is “dose-dependently reduced”. For the same molecule, the “amount of viral mRNA” value with HBV mRNA is “did not affect”. Further, the “capsid-associated HBV DNA / DNA synthesis” value in series [2] was “reduced encapsidated pgRNA and capsid-associated HBV DNA in a dose-dependent manner”.

Source of the values: patent US20190092720A1, “FUNCTIONALIZED BENZAMIDE DERIVATIVES AS ANTIVIRAL AGENTS AGAINST HBV INFECTION” (BARUCH S. BLUMBERG INSTITUTE, priority 2012, published 2019).
